Results taken from the NIST ThermoML archive (doi:10.1016/j.fluid.2018.05.028).

Assay: refractive index (Na D-line) (dimensionless); xn = mol fraction of the nth substance listed
Conditions: 101 kPa, Liquid, Standard Abbe refractometry

CCCCCCCCCCCCCCCC [hexadecane] + CCCCO
refractive index
Conditions	x2 = 0	x2 = 0.1	x2 = 0.2	x2 = 0.3	x2 = 0.4	x2 = 0.5	x2 = 0.6	x2 = 0.7	x2 = 0.8	x2 = 0.9
293.15 K	1.434	1.4329	1.4315	1.4295	1.4274	1.425	1.422	1.4184	1.4139	1.4078
298.15 K	1.4318	1.4307	1.4293	1.4274	1.4252	1.4228	1.4199	1.4162	1.4118	1.4057
303.15 K	1.4296	1.4286	1.4271	1.4252	1.4231	1.4206	1.4177	1.4141	1.4096	1.4036
308.15 K	1.4275	1.4264	1.425	1.423	1.4209	1.4185	1.4155	1.4119	1.4075	1.4015
313.15 K	1.4254	1.4242	1.4228	1.4208	1.4187	1.4163	1.4134	1.4097	1.4053	1.3994
318.15 K	1.4233	1.4221	1.4206	1.4186	1.4165	1.4141	1.4111	1.4075	1.4031	1.3973
323.15 K	1.4211	1.4199	1.4184	1.4164	1.4143	1.4119	1.4089	1.4053	1.4009	1.3951
328.15 K	1.419	1.4177	1.4162	1.4142	1.4121	1.4097	1.4067	1.4031	1.3987	1.3929
333.15 K	1.4169	1.4156	1.4141	1.4121	1.4099	1.4074	1.4045	1.4009	1.3965	1.3907
338.15 K	1.4149	1.4135	1.4119	1.4099	1.4077	1.4052	1.4022	1.3987	1.3942	1.3885
343.15 K	1.4129	1.4114	1.4097	1.4076	1.4056	1.403	1.4	1.3964	1.392	1.3862

CCCCCCCCCCCCCCCC [hexadecane] + CCCO
refractive index
Conditions	x2 = 0	x2 = 0.1	x2 = 0.2	x2 = 0.3	x2 = 0.4	x2 = 0.5	x2 = 0.6	x2 = 0.7	x2 = 0.8	x2 = 0.9
293.15 K	1.434	1.4327	1.431	1.4288	1.4266	1.4233	1.4196	1.4148	1.4084	1.3993
298.15 K	1.4318	1.4305	1.4288	1.4266	1.4244	1.4211	1.4174	1.4127	1.4062	1.3972
303.15 K	1.4296	1.4284	1.4266	1.4244	1.4222	1.4189	1.4152	1.4105	1.4041	1.3951
308.15 K	1.4275	1.4262	1.4245	1.4223	1.42	1.4167	1.4131	1.4083	1.4019	1.3929
313.15 K	1.4254	1.4241	1.4223	1.4201	1.4179	1.4145	1.4109	1.4061	1.3998	1.3908
318.15 K	1.4233	1.4219	1.4201	1.4179	1.4156	1.4123	1.4087	1.4038	1.3976	1.3885
323.15 K	1.4211	1.4197	1.4179	1.4157	1.4134	1.41	1.4064	1.4016	1.3952	1.3863
328.15 K	1.419	1.4176	1.4157	1.4135	1.4112	1.4077	1.4041	1.3993	1.393	1.3841
333.15 K	1.4169	1.4154	1.4135	1.4113	1.4089	1.4054	1.4018	1.397	1.3907	1.3818
338.15 K	1.4149	1.4133	1.4113	1.4091	1.4067	1.4032	1.3995	1.3947	1.3884	1.3795
343.15 K	1.4129	1.4111	1.4092	1.4069	1.4044	1.401	1.3972	1.3924	1.386	1.3771
